From US20130035246A1, “Method and Apparatus for Determining a Mammal's Exposure to Chemical or Biological Agents” ([…], INC., priority 2011, published 2013)

Tested on: peripheral blood mononuclear cell (PBMC) cultures
Assay: Cytokine expression in PBMC cultures challenged with mold cells or PHA (multiplex immunoassay)
Format: cell-based, human
Settings: PBMC from healthy volunteers, 18 hours
Description: PBMC were isolated from blood collected from patients and control subjects as previously described [Gillis B, Gavin I M, Arbieva Z, King S T, Jayaraman S, Prabhakar B S. Identification of human cell responses to benzene and benzene metabolites. Genomics 2007; 90: 324-333 and Gavin I M, Gillis B, Arbieva Z, Prabhakar B S. Identification of human cell responses to hexavalent chromium. Environ Mol Mutagen 2007; 48: 650-657.] and incorporated herein by reference. One milliliter of blood plasma was also collected from the blood samples and stored frozen at −80° C. […]
After overnight culture of the PMBC, one milliliter of supernatant was removed from each plate, centrifuged at 16,000 g at +4° C. for 10 minutes, and clear cell-free culture media were collected. Cytokine concentrations in culture supernatants, as well as in plasma, were measured by multiplex immunoassay based on Luminex xMAP™ bead array technology using a Bio-Plex 200 fluorescence bead reader (BioRad Laboratories, Hercules, Calif.). […]
Statistical analyses were performed with Microsoft Excel and Analyse-it software (Analyse-it Software Ltd., Leeds, UK). An increase of cytokine expression in immunologic challenges was evaluated using a Student's t-test. […] The statistical significance of the difference in responses to various immunologic challenges was evaluated by using a one-way ANOVA test with Tukey type I error correction. […]

## phytohemagglutinin [PHA]
  IL-2, IL-4 and IL-5 in culture supernatants: detected
